Assay results taken from ChEMBL document CHEMBL4680133, “Novel nitroimidazole derivatives evaluated for their trypanocidal, cytotoxic, and genotoxic activities” (Eur J Med Chem, 2020).

Columns and labels:
[1] = Mutagenicity in Salmonella typhimurium TA100 assessed as revertant/ug measured after 20 mins in presence of S9 fraction by microsome assay; type: toxicity, subcellular; conditions: salmonella enterica subsp. enterica serovar typhimurium, s9, 20 min
[2] = Mutagenicity in Salmonella typhimurium TA100 assessed as revertant/ug measured after 20 mins in absence of S9 fraction by microsome assay; type: toxicity; conditions: salmonella enterica subsp. enterica serovar typhimurium, microsomes
[3] = Selectivity index, ratio of GI50 for human HepG2 cells assessed as reduction in cell viability measured after 24 hrs by WST1 assay to IC50 for antitrypanosomal activity against bloodstream form of Trypanosoma cruzi Y trypomastigotes infected in African green monkey Vero cells; type: toxicity; conditions: read-out: Selectivity Index
[4] = Mutagenicity in Salmonella typhimurium TA97 measured after 20 mins in presence of S9 fraction by microsome assay; type: toxicity, subcellular; conditions: salmonella enterica subsp. enterica serovar typhimurium, s9, 20 min, dose 5-100 µg
[5] = Selectivity index, ratio of GI50 for mouse RAW264.7 cells assessed as reduction in cell viability measured after 24 hrs by WST1 assay to IC50 for antitrypanosomal activity against Trypanosoma cruzi Y axenic amastigotes infected in African green monkey Vero cells; type: toxicity; conditions: read-out: Selectivity Index
RAW264.7 [6] = test: Genotoxicity in mouse RAW264.7 cells assessed as mitotic index at 213 uM measured after 24 hrs by micronucleus test (reference value: 40 to 249); type: toxicity, cell-based; conditions: raw264.7, 24 h
Trypanosoma cruzi [7] = test: Antitrypanosomal activity against bloodstream form of Trypanosoma cruzi Y trypomastigotes infected in African green monkey Vero cells assessed as increase in parasite lysis measured after 24 hrs by Neubauer chamber method; type: functional, organism-based
[8] = Cytotoxicity against human HepG2 cells assessed as reduction in cell viability measured after 24 hrs by WST1 assay; type: cell-based
[9] = Mutagenicity in Salmonella typhimurium TA97 measured after 20 mins in absence of S9 fraction by microsome assay; type: toxicity; conditions: salmonella enterica subsp. enterica serovar typhimurium, microsomes, dose 5-100 µg
[10] = Mutagenicity in Salmonella typhimurium TA100 measured after 20 mins in absence of S9 fraction by microsome assay; type: toxicity; conditions: salmonella enterica subsp. enterica serovar typhimurium, microsomes, dose 5-100 µg
[11] = Mutagenicity in Salmonella typhimurium TA97 assessed as revertant/ug measured after 20 mins in presence of S9 fraction by microsome assay; type: toxicity, subcellular; conditions: salmonella enterica subsp. enterica serovar typhimurium, s9, 20 min
[12] = Selectivity index, ratio of GI50 for human HepG2 cells assessed as reduction in cell viability measured after 24 hrs by WST1 assay to IC50 for antitrypanosomal activity against Trypanosoma cruzi Y axenic amastigotes infected in African green monkey Vero cells; type: toxicity; conditions: read-out: Selectivity Index
[13] = Toxicity in Salmonella typhimurium YG1021 at 5 to 100 ug/plate after 20 mins by colony counting method; conditions: salmonella enterica subsp. enterica serovar typhimurium, dose 5-100 µg
[14] = Mutagenicity in Salmonella typhimurium TA98 measured after 20 mins in absence of S9 fraction by microsome assay; type: toxicity; conditions: salmonella enterica subsp. enterica serovar typhimurium, microsomes, dose 5-100 µg
[15] = Mutagenicity in Salmonella typhimurium YG1021 at 5 to 100 ug/plate after 20 mins by microsome assay; type: toxicity; conditions: salmonella enterica subsp. enterica serovar typhimurium, microsomes
HepG2 [16] = test: Genotoxicity in human HepG2 assessed as mitotic index at 4270 uM measured after 24 hrs by micronucleus test (reference value: 61 to 108); type: toxicity, cell-based; conditions: hepg2, 24 h
[17] = Mutagenicity in Salmonella typhimurium TA102 measured after 20 mins in presence of S9 fraction by microsome assay; type: toxicity, subcellular; conditions: salmonella enterica subsp. enterica serovar typhimurium, s9, 20 min, dose 5-100 µg
[18] = Mutagenicity in Salmonella typhimurium TA98 measured after 20 mins in presence of S9 fraction by microsome assay; type: toxicity, subcellular; conditions: salmonella enterica subsp. enterica serovar typhimurium, s9, 20 min, dose 5-100 µg
[19] = Selectivity index, ratio of GI50 for mouse RAW264.7 cells assessed as reduction in cell viability measured after 24 hrs by WST1 assay to IC50 for antitrypanosomal activity against bloodstream form of Trypanosoma cruzi Y trypomastigotes infected in African green monkey Vero cells; type: toxicity; conditions: read-out: Selectivity Index
[20] = Mutagenicity in Salmonella typhimurium TA97 assessed as revertant/ug measured after 20 mins in absence of S9 fraction by microsome assay; type: toxicity; conditions: salmonella enterica subsp. enterica serovar typhimurium, microsomes
[21] = Cytotoxicity against mouse RAW264.7 cells assessed as reduction in cell viability measured after 24 hrs by WST1 assay; type: cell-based
[22] = Mutagenicity in Salmonella typhimurium YG1024 at 5 to 100 ug/plate after 20 mins by microsome assay; type: toxicity; conditions: salmonella enterica subsp. enterica serovar typhimurium, microsomes, dose 5-100 µg
[23] = Mutagenicity in Salmonella typhimurium TA102 measured after 20 mins in absence of S9 fraction by microsome assay; type: toxicity; conditions: salmonella enterica subsp. enterica serovar typhimurium, microsomes, dose 5-100 µg
[24] = Toxicity in Salmonella typhimurium TA97 at 100 ug/plate measured after 20 mins in absence of S9 fraction by colony counting method; conditions: salmonella enterica subsp. enterica serovar typhimurium, dose 100 µg
[25] = Mutagenicity in Salmonella typhimurium TA100 measured after 20 mins in presence of S9 fraction by microsome assay; type: toxicity, subcellular; conditions: salmonella enterica subsp. enterica serovar typhimurium, s9, 20 min, dose 5-100 µg
Trypanosoma cruzi [26] = test: Antitrypanosomal activity against Trypanosoma cruzi Y axenic amastigotes infected in African green monkey Vero cells after 24 hrs by MTT assay; type: functional, organism-based
HepG2 [27] = test: Genotoxicity in human HepG2 assessed as mitotic index at 2135 uM measured after 24 hrs by micronucleus test (reference value: 61 to 108); type: toxicity, cell-based; conditions: hepg2, 24 h
HepG2 [28] = test: Genotoxicity in human HepG2 assessed as number of micronucleated cells at 213 uM measured after 24 hrs by micronucleus test (reference value: 14 to 18); type: toxicity, cell-based; conditions: hepg2, 24 h
[29] = Toxicity in Salmonella typhimurium YG1024 at 5 to 100 ug/plate after 20 mins by colony counting method; conditions: salmonella enterica subsp. enterica serovar typhimurium, dose 5-100 µg
[30] = Genotoxicity in mouse RAW264.7 cells assessed as survival at 175 uM measured after 24 hrs by micronucleus test (reference value: 100%); type: toxicity, cell-based; conditions: read-out: Survival
HepG2 [31] = test: Genotoxicity in human HepG2 assessed as number of micronucleated cells at 175 uM measured after 24 hrs by micronucleus test (reference value: 14 to 18); type: toxicity, cell-based; conditions: hepg2, 24 h
RAW264.7 [32] = test: Genotoxicity in mouse RAW264.7 cells assessed as mitotic index at 175 uM measured after 24 hrs by micronucleus test (reference value: 40 to 249); type: toxicity, cell-based; conditions: raw264.7, 24 h
[33] = Genotoxicity in human HepG2 assessed as survival at 350 uM measured after 24 hrs by micronucleus test (reference value: 100%); type: toxicity, cell-based; conditions: HepG2 cells, read-out: Survival
HepG2 [34] = test: Genotoxicity in human HepG2 assessed as number of micronucleated cells at 350 uM measured after 24 hrs by micronucleus test (reference value: 14 to 18); type: toxicity, cell-based; conditions: hepg2, 24 h
[35] = Genotoxicity in mouse RAW264.7 cells assessed as survival at 1750 uM measured after 24 hrs by micronucleus test (reference value: 100%); type: toxicity, cell-based; conditions: read-out: Survival
HepG2 [36] = test: Genotoxicity in human HepG2 assessed as number of micronucleated cells at 3500 uM measured after 24 hrs by micronucleus test (reference value: 14 to 18); type: toxicity, cell-based; conditions: hepg2, 24 h
RAW264.7 [37] = test: Genotoxicity in mouse RAW264.7 cells assessed as mitotic index at 3500 uM measured after 24 hrs by micronucleus test (reference value: 40 to 249); type: toxicity, cell-based; conditions: raw264.7, 24 h
HepG2 [38] = test: Genotoxicity in human HepG2 assessed as number of micronucleated cells at 1750 uM measured after 24 hrs by micronucleus test (reference value: 14 to 18); type: toxicity, cell-based; conditions: hepg2, 24 h
[39] = Genotoxicity in human HepG2 assessed as survival at 1750 uM measured after 24 hrs by micronucleus test (reference value: 100%); type: toxicity, cell-based; conditions: HepG2 cells, read-out: Survival

Row | SMILES | Activity [1] [revertants/µg] | Activity [2] [revertants/µg] | selectivity ratio at 24 h [3] | Activity [4] | selectivity ratio at 24 h [5] | IC50 (Trypanosoma cruzi [7]) [µM] | GI50 at 24 h [8] [µM] | Activity [9] | Activity [10] | Activity [11] [µg] | selectivity ratio at 24 h [12] | Activity [13] | Activity [14] | Activity [15] | Activity [17] | Activity [18] | selectivity ratio at 24 h [19] | Activity [20] [revertants/µg] | GI50 at 24 h [21] [µM] | Activity [22] | further results
1 | Cn1cnc([N+](=O)[O-])c1-n1cc(C2CC2)nn1 | 0.278 | 2.42 | > 79 | Toxic | > 35.5 | 5.4 | > 427 | Toxic | Toxic | 3.833 | > 35.5 | Non-Toxic | Non-Toxic | Non-Toxic | Toxic | Non-Toxic | > 79 | 6.31 | > 427 | Non-Toxic | Activity_index (RAW264.7 [6]): 30; Activity_index (HepG2 [16]): 124; Activity [23]: Toxic; Activity [24]: Toxic; Activity [25]: Toxic; IC50 (Trypanosoma cruzi [26]): 12 µM; Activity_index (HepG2 [27]): 101; Activity (HepG2 [28]): 17; Activity [29]: Non-Toxic
2 | CCCCCc1ccc(-c2cn(-c3c([N+](=O)[O-])ncn3C)nn2)cc1 | 2.46 | 2.96 | 27 | Toxic | > 0.25 | 12.9 | > 350 | Toxic | Toxic | 8.494 | > 2.46 | Toxic | Non-Toxic | Toxic | Toxic | Non-Toxic | 2.77 | 1.34 | 35.8 | Toxic | viability at 24 h, 175 µM [30]: 99%; Activity (HepG2 [31]): 14; Activity_index (RAW264.7 [32]): 245; viability at 24 h, 350 µM [33]: 95%; Activity (HepG2 [34]): 25; viability at 24 h, 1750 µM [35]: 85%; Activity (HepG2 [36]): 42; Activity_index (RAW264.7 [37]): 115; Activity [23]: Toxic; Activity [25]: Toxic; Activity (HepG2 [38]): 35; viability at 24 h, 1750 µM [39]: 80%; IC50 (Trypanosoma cruzi [26]): 142 µM
